Assay [1] addresses T1, human NTCP (Homo sapiens, UniProt Q14973).
T1 sequence (Q14973 1-349): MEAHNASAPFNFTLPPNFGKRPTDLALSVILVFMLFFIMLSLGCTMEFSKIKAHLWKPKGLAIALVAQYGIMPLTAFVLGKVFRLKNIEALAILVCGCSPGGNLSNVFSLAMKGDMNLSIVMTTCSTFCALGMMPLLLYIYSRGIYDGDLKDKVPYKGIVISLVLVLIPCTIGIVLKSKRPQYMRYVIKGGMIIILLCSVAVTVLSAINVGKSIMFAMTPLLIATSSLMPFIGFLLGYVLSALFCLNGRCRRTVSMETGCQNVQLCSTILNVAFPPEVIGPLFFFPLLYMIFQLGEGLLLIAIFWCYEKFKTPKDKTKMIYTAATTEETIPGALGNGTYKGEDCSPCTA
In words: Screening fluorescent competitive Myrcludex B-FITC binding assay (96-well, 10 µM drug).

The target of assay [2] is T1, human NTCP. In words: Screening taurocholate uptake assay (96-well, [14C]taurocholate, 10 µM drug).
The mark [3] stands for this setting: screen, 10 µM drug, Myrcludex B-FITC binding.
The mark [4] stands for this setting: combined ranking from functional and binding screening assays.
Setting [5] is: screen, 10 µM drug, taurocholate uptake.
[6] abbreviates: Prestwick library screen, 10 µM drug, B-score of Myrcludex B-FITC binding.
[7] abbreviates: Prestwick library screen, 10 µM drug, B-score of taurocholate uptake.
Setting [8] is: combined ranking from functional and binding assay B-scores.
[9] abbreviates: Prestwick library screen, Myrcludex B-FITC binding, 10 µM drug.
Setting [10] is: Prestwick library screen, taurocholate uptake, 10 µM drug.
The mark [11] stands for this setting: ranking score beside the functional and binding assay B-scores of the screen.

Counter-ions that a name gives are not always drawn. Like-named read-outs stand apart in the source and are kept apart here.

With `CC(=O)Oc1cc(C(C)C)c(OCCN(C)C)cc1C.Cl` [Moxisylyte hydrochoride], the B-score binding assay on human NTCP [1] (setting [3]) is reported as -0.183. Moreover, the Ranking score on human NTCP [2] (setting [4]) turned out to be 375.319. Further, the B-score functional assay on human NTCP [2] (setting [5]) is -0.84.
At human NTCP [1] (setting [6]), `O=c1[nH]c(=O)n([C@H]2C[C@H](O)[C@@H](CO)O2)cc1C(F)(F)F` [Trifluridine] showed a B-score binding assay of 2.847. Besides, the B-score functional assay on human NTCP [2] (setting [7]) was 0.173. For the same molecule, the Ranking score at human NTCP [2] (setting [8]) stood at 994.589.
For `CCOC(=O)C1=C(C)NC(C)=C(C(=O)OCC)C1c1ccccc1/C=C/C(=O)OC(C)(C)C` [Lacidipine], in that order: 1.528, 0.194 and 957.497.
`C=CC[N@@+]12CC[C@@]34c5ccccc5N5/C=C6/[C@H]7C[C@H]8[C@@]9(CC[N@@+]8(CC=C)C/C7=C/CO)c7ccccc7N(/C=C(/[C@@H](C[C@@H]31)/C(=C\CO)C2)[C@H]54)[C@@H]69.[Cl-].[Cl-]` [Alcuronium chloride]: the B-score binding assay on human NTCP [1] (setting [3]) was -1.767. The Ranking score at human NTCP [2] (setting [4]) worked out at 375.739. Moreover, the B-score functional assay on human NTCP [2] (setting [5]) is on record as 1.096.
As for `Nc1nc(N)c2nc(-c3ccccc3)c(N)nc2n1` [Triamterene], the B-score binding assay on human NTCP [1] (setting [9]) is reported as -0.121. In addition, on human NTCP [2] (setting [10]), the B-score functional assay was determined as 0.708. In addition, the Ranking score on human NTCP [2] (setting [11]) was 725.193.
`CN1CCc2c(c3ccccc3n2Cc2ccccc2)C1.O=S(=O)(O)c1cccc2c(S(=O)(=O)O)cccc12` [Mebhydroline 1,5-naphtalenedisulfonate] came in with a B-score binding assay at human NTCP [1] (setting [6]) of 1.889. The B-score functional assay on human NTCP [2] (setting [7]) is reported as 0.022. The Ranking score on human NTCP [2] (setting [8]) was determined as 893.031.
`O=C(CCCCC(=O)Nc1c(I)cc(I)c(C(=O)O)c1I)Nc1c(I)cc(I)c(C(=O)O)c1I` [Iodipamide] displayed a B-score binding assay on human NTCP [1] (setting [9]) of -0.069. Also, the B-score functional assay on human NTCP [2] (setting [10]) is 2.519. Moreover, the Ranking score at human NTCP [2] (setting [11]) is listed as 831.882.
Regarding `CN1CCCC(n2nc(Cc3ccc(Cl)cc3)c3ccccc3c2=O)CC1` (stereo not drawn) [Azelastine HCl], the B-score binding assay on human NTCP [1] (setting [6]) turned out to be 0.157. The B-score functional assay at human NTCP [2] (setting [7]) is 1.435. Moreover, the Ranking score on human NTCP [2] (setting [8]) was 940.553.
The corresponding values for `CCC[C@@H]1C[C@@H](C(=O)N[C@@H]([C@H]2O[C@H](SC)[C@H](O)[C@@H](O)[C@H]2O)[C@@H](C)O)N(C)C1` [Lincomycin hydrochloride] are 0.419, 0.903 and 960.458.
Turning to `Cc1ccsc1/C=C/C1=NCCCN1C` [Morantel tartrate], the B-score binding assay at human NTCP [1] (setting [3]) is -0.484. For the same molecule, the Ranking score on human NTCP [2] (setting [4]) was 381. This molecule also had a B-score functional assay at human NTCP [2] (setting [5]) of -0.483.
For the molecule `COc1ccc(Cc2nccc3cc(OC)c(OC)cc23)cc1OC` [Papaverine hydrochloride], at human NTCP [1] (setting [9]), the B-score binding assay is recorded as 0.722. This molecule yielded a B-score functional assay at human NTCP [2] (setting [10]) of -0.09. The molecule also gave a Ranking score on human NTCP [2] (setting [11]) of 728.955.
The molecule `Cl.O=c1[nH]oc2c1CCNC2` [THIP Hydrochloride] showed a B-score binding assay at human NTCP [1] (setting [3]) of -1.136. The Ranking score at human NTCP [2] (setting [4]) is reported as 426.394. For the same molecule, the B-score functional assay at human NTCP [2] (setting [5]) was found to be 0.28.
Turning to `CCCCc1oc2ccccc2c1C(=O)c1cc(I)c(OCCN(CC)CC)c(I)c1` [Amiodarone hydrochloride], the B-score binding assay on human NTCP [1] (setting [9]) is recorded as 1.025. On human NTCP [2] (setting [10]), the B-score functional assay was found to be 0.027. Further, the Ranking score at human NTCP [2] (setting [11]) stood at 845.421.
For `COc1ccc(C[C@@H]2c3cc(OC)c(OC)cc3CC[N@+]2(C)CCC(=O)OCCCCCOC(=O)CC[N@@+]2(C)CCc3cc(OC)c(OC)cc3[C@H]2Cc2ccc(OC)c(OC)c2)cc1OC` [Cisatracurium besylate], in that order: -0.016, 0.628 and 764.984.
At human NTCP [1] (setting [6]), `CCCCOC(=O)c1ccc(N)cc1` [Butamben] returned a B-score binding assay of 1.315. Besides, the B-score functional assay on human NTCP [2] (setting [7]) is given as 0.768. Further, the Ranking score on human NTCP [2] (setting [8]) is recorded as 1050.86.
`C[C@]12CCC(=O)C=C1CC[C@@H]1[C@@H]2C(=O)C[C@@]2(C)[C@H]1CC[C@]2(O)C(=O)CO` [Cortisone]: on human NTCP [1] (setting [3]), the B-score binding assay is given as -0.62. Moreover, the Ranking score at human NTCP [2] (setting [4]) came to 405.336. Moreover, the B-score functional assay on human NTCP [2] (setting [5]) is -0.212.
`O=C(c1ccccc1)c1ccc2n1CCC2C(=O)O` (stereo not drawn) [Ketorolac tromethamine] yielded a B-score binding assay at human NTCP [1] (setting [3]) of -0.614. On human NTCP [2] (setting [4]), the Ranking score was determined as 396.636. In addition, on human NTCP [2] (setting [5]), the B-score functional assay is -0.269.
At human NTCP [1] (setting [9]), `CO[C@H]1/C=C/O[C@@]2(C)Oc3c(C)c(O)c4c(c3C2=O)C2=NC3(CCN(CC(C)C)CC3)NC2=C(NC(=O)/C(C)=C\C=C\[C@H](C)[C@H](O)[C@@H](C)[C@@H](O)[C@@H](C)[C@H](OC(C)=O)[C@@H]1C)C4=O` [Rifabutin] came in with a B-score binding assay of -0.23. Also, the B-score functional assay on human NTCP [2] (setting [10]) worked out at 1.309. Further, the Ranking score at human NTCP [2] (setting [11]) is on record as 731.029.
`c1ccc(CC2=NCCN2)cc1` [Tolazoline hydrochloride]: the B-score binding assay on human NTCP [1] (setting [6]) stood at 0.03. The molecule further had a B-score functional assay on human NTCP [2] (setting [7]) of 4.096. For the same molecule, the Ranking score at human NTCP [2] (setting [8]) was determined as 929.251.
The corresponding values for `Cc1cnc(C(=O)O)c[n+]1[O-]` [Acipimox] are 0.142, 0.91 and 894.262.
For `Cc1cc2c(cc1S(N)(=O)=O)S(=O)(=O)CCC2` [Meticrane], the B-score binding assay on human NTCP [1] (setting [6]) is listed as -0.016. Also, the B-score functional assay at human NTCP [2] (setting [7]) is recorded as 3.166. The Ranking score at human NTCP [2] (setting [8]) is 878.911.
`CC(CCc1ccccc1)NC(C)C(O)c1ccc(O)cc1` (stereo not drawn) [Nylidrin] came in with a B-score binding assay on human NTCP [1] (setting [3]) of -0.92. Also, the Ranking score at human NTCP [2] (setting [4]) amounted to 363.793. At human NTCP [2] (setting [5]), this molecule showed a B-score functional assay of -0.121.
With `Cl.Nc1c(Br)cc(Br)cc1CNC1CCC(O)CC1` (stereo not drawn) [Ambroxol hydrochloride], the B-score binding assay at human NTCP [1] (setting [6]) came out at 1.513. This molecule showed a B-score functional assay at human NTCP [2] (setting [7]) of 0.006. At human NTCP [2] (setting [8]), the Ranking score stood at 860.528.
For `O=[N+]([O-])O[C@H]1CO[C@H]2[C@@H]1OC[C@H]2O[N+](=O)[O-]` [Isosorbide dinitrate], the B-score binding assay on human NTCP [1] came to 0.166. At human NTCP [2], this molecule gave a B-score functional assay of 2.183 and a Ranking score of 973.944.
Consider `Nc1nc2c(ncn2COCCO)c(=O)[nH]1` [Acyclovir], for which the B-score binding assay at human NTCP [1] (setting [9]) is reported as 0. Moreover, the B-score functional assay at human NTCP [2] (setting [10]) is recorded as 0.026. Besides, on human NTCP [2] (setting [11]), the Ranking score was determined as 658.696.
Turning to `Nc1nc(O)c2ncn(COC(CO)CO)c2n1` [Ganciclovir], the B-score binding assay on human NTCP [1] (setting [3]) was 0.144. Further, the Ranking score on human NTCP [2] (setting [4]) was 278.51. The B-score functional assay at human NTCP [2] (setting [5]) was -2.412.
For `C[C@H]1NC(=O)NC1=O` [Methylhydantoin-5-(D)], in that order: -1.862, 290.241 and 0.047.
Turning to `Cc1scc2c1N(C(=O)CN1CCN(C)CC1)c1ccccc1NC2=O` [Telenzepine dihydrochloride], the B-score binding assay on human NTCP [1] (setting [6]) turned out to be 1.535. Further, on human NTCP [2] (setting [7]), the B-score functional assay was found to be 0.592. Besides, the Ranking score at human NTCP [2] (setting [8]) came out at 1037.8.
As for `CCOC(=O)[C@H](CCc1ccccc1)N[C@@H](C)C(=O)N1CCC[C@H]1C(=O)O` [Enalapril maleate], the B-score binding assay on human NTCP [1] (setting [9]) was 0.03. Also, the B-score functional assay on human NTCP [2] (setting [10]) turned out to be 0.08. The molecule also came in with a Ranking score at human NTCP [2] (setting [11]) of 705.002.

Values taken from article PMC5681660, “Reduced hepatitis B and D viral entry using clinically applied drugs as novel inhibitors of the bile acid transporter NTCP” (Scientific Reports, 2017).
